# Laboratory results reported in ChEMBL document CHEMBL1201861, “Genomics of Drug Sensitity in Cancer screening data, Wellcome Trust Sanger Institute”.
# Legend:
# Assay in all cases: cells
# D283 Med = format: functional, cell-based, Homo sapiens; settings: Homo sapiens, D283 Med
# Description: SANGER: Inhibition of human D-283MED cell growth in a cell viability assay.
# RH-1 = format: functional, cell-based, Homo sapiens; settings: Homo sapiens, RH-1;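 note: growth inhibition of human RH-1 cells, read out with a cell viability assay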
# MSTO-211H = format: functional, cell-based, Homo sapiens; settings: Homo sapiens, MSTO-211H
# Description: SANGER: Inhibition of human MSTO-211H cell growth in a cell viability assay.
# A4-Fuk = format: functional, cell-based, Homo sapiens; settings: Homo sapiens, A4-Fuk;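 note: growth inhibition of A4-Fuk cells, read out by a cell viability assay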
# Description: SANGER: Inhibition of human A4-Fuk cell growth in a cell viability assay.
# NCI-H1355 = format: functional, cell-based, Homo sapiens; settings: Homo sapiens, NCI-H1355;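 note: growth inhibition of human NCI-H1355 cells, read out by a cell viability assay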
# Description: SANGER: Inhibition of human NCI-H1355 cell growth in a cell viability assay.
# P30-OHK = format: functional, cell-based, Homo sapiens; settings: Homo sapiens, P30-OHK;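 note: growth inhibition of the P30-OHK cell line, read out with a cell viability assay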
# Description: SANGER: Inhibition of human P30-OHK cell growth in a cell viability assay.
# BV-173 = format: functional, cell-based, Homo sapiens; settings: Homo sapiens, BV-173
# Description: SANGER: Inhibition of human BV-173 cell growth in a cell viability assay.
# ETK-1 = format: functional, cell-based, Homo sapiens; settings: Homo sapiens, ETK-1;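 note: growth inhibition of human ETK-1 cells, read out with a cell viability assay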
# Description: SANGER: Inhibition of human ETK-1 cell growth in a cell viability assay.
# ES7 = format: functional, cell-based, Homo sapiens; settings: Homo sapiens, ES7;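 note: growth inhibition of cultured human ES7 cells, read out as cell viability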
# Description: SANGER: Inhibition of human ES7 cell growth in a cell viability assay.
# NOMO-1 = format: functional, cell-based, Homo sapiens; settings: Homo sapiens, NOMO-1;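 note: growth inhibition of human NOMO-1 cells measured by a cell viability assay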
# Description: SANGER: Inhibition of human NOMO-1 cell growth in a cell viability assay.
# COLO-800 = format: functional, cell-based, Homo sapiens; settings: Homo sapiens, COLO-800;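 note: growth inhibition of COLO-800 cells, read out with a cell viability assay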
# Description: SANGER: Inhibition of human COLO-800 cell growth in a cell viability assay.
# SW872 = format: functional, cell-based, Homo sapiens; settings: Homo sapiens, SW872;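 note: growth inhibition of SW872 cells, read out by a viability assay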
# Description: SANGER: Inhibition of human SW872 cell growth in a cell viability assay.
# SF-268 = format: functional, cell-based, Homo sapiens; settings: Homo sapiens, SF-268;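 note: growth inhibition of SF-268 cells determined with a cell viability assay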
# Description: SANGER: Inhibition of human SF268 cell growth in a cell viability assay.
# COLO-668 = format: functional, cell-based, Homo sapiens; settings: Homo sapiens, COLO-668
# Description: SANGER: Inhibition of human COLO-668 cell growth in a cell viability assay.
# HCC2218 = format: functional, cell-based, Homo sapiens; settings: Homo sapiens, HCC2218;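 note: cell viability assay read-out, with IC50 given as the concentration that inhibits growth of the cell line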
# Description: SANGER: Inhibition of human HCC2218 cell growth in a cell viability assay.
# U-87 MG = format: functional, cell-based, Homo sapiens, U-87MG ATCC; settings: Homo sapiens, U-87 MG;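 note: growth inhibition of the cells measured with a viability assay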
# Description: SANGER: Inhibition of human U-87-MG cell growth in a cell viability assay.
# EW-18 = format: functional, cell-based, Homo sapiens; settings: Homo sapiens, EW-18;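 note: growth inhibition of EW-18 cells, read out by a cell viability assay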
# Description: SANGER: Inhibition of human EW-18 cell growth in a cell viability assay.
# COLO-320-HSR = format: functional, cell-based, Homo sapiens; settings: Homo sapiens, COLO-320-HSR;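 note: growth inhibition of COLO-320-HSR cells, determined with a cell viability assay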
# Description: SANGER: Inhibition of human COLO-320-HSR cell growth in a cell viability assay.
# NEC8 = format: functional, cell-based, Homo sapiens; settings: Homo sapiens, NEC8;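 note: growth inhibition of human NEC8 cells, read out by a cell viability assay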
# Description: SANGER: Inhibition of human NEC8 cell growth in a cell viability assay.
# KNS-42 = format: functional, cell-based; settings: Homo sapiens;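 note: growth inhibition of KNS-42 cells, read out with a cell viability assay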
# Description: SANGER: Inhibition of human KNS-42 cell growth in a cell viability assay.
# SK-N-DZ = format: functional, cell-based, Homo sapiens; settings: Homo sapiens, SK-N-DZ;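 note: growth inhibition of the cancer cell line, read out through a viability assay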
# Description: SANGER: Inhibition of human SK-N-DZ cell growth in a cell viability assay.
# KINGS-1 = format: functional, cell-based, Homo sapiens; settings: Homo sapiens, KINGS-1;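 note: cell viability assay measuring suppression of KINGS-1 cell growth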
# Description: SANGER: Inhibition of human KINGS-1 cell growth in a cell viability assay.
# NCI-H1838 = format: functional, cell-based, Homo sapiens; settings: Homo sapiens, NCI-H1838;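 note: growth inhibition of NCI-H1838 cells, determined with a cell viability readout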
# Description: SANGER: Inhibition of human NCI-H1838 cell growth in a cell viability assay.
# RPMI-8226 = format: functional, cell-based, Homo sapiens; settings: Homo sapiens, RPMI-8226
# Description: SANGER: Inhibition of human RPMI-8226 cell growth in a cell viability assay.
# GCIY = format: functional, cell-based, Homo sapiens; settings: Homo sapiens, GCIY;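 note: growth inhibition of the human GCIY cell line, read out by a cell viability assay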
# Description: SANGER: Inhibition of human GCIY cell growth in a cell viability assay.
# MFM-223 = format: functional, cell-based, Homo sapiens; settings: Homo sapiens, MFM-223
# Description: SANGER: Inhibition of human MFM-223 cell growth in a cell viability assay.
# QIMR-WIL = format: functional, cell-based, Homo sapiens; settings: Homo sapiens, QIMR-WIL;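 note: growth inhibition of QIMR-WIL cells, read out with a cell viability assay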
# Description: SANGER: Inhibition of human QIMR-WIL cell growth in a cell viability assay.
# LU-139 = format: functional, cell-based, Homo sapiens; settings: Homo sapiens, LU-139
# CW-2 = format: functional, cell-based, Homo sapiens; settings: Homo sapiens, CW-2;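 note: growth inhibition of CW-2 cells, read out by a cell viability assay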
# Description: SANGER: Inhibition of human CW-2 cell growth in a cell viability assay.
# LNCaP-Clone-FGC = format: functional, cell-based, Homo sapiens; settings: Homo sapiens, LNCaP-Clone-FGC
# Description: SANGER: Inhibition of human LNCaP-Clone-FGC cell growth in a cell viability assay.
# K562 = format: functional, cell-based, Homo sapiens; settings: Homo sapiens, K562
# NB10 = format: functional, cell-based, Homo sapiens; settings: Homo sapiens, NB10;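 note: growth inhibition of NB10 cells, read out by a cell viability assay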
# Description: SANGER: Inhibition of human NB10 cell growth in a cell viability assay.
# ATN-1 = format: functional, cell-based, Homo sapiens; settings: Homo sapiens, ATN-1;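 note: growth inhibition of human ATN-1 cells, read out with a cell viability assay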
# Description: SANGER: Inhibition of human ATN-1 cell growth in a cell viability assay.
# EOL1 = format: functional, cell-based, Homo sapiens; settings: Homo sapiens, EOL1;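 note: growth inhibition of EoL-1 cells, read out by a cell viability assay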
# LB1047-RCC = format: functional, cell-based, Homo sapiens; settings: Homo sapiens, LB1047-RCC;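 note: inhibition of cell growth, determined with a cell viability assay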
# Description: SANGER: Inhibition of human LB1047-RCC cell growth in a cell viability assay.
# HAL-01 = format: functional, cell-based, Homo sapiens; settings: Homo sapiens, HAL-01;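 note: growth inhibition of human HAL-01 cells, read out with a cell viability assay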
# Description: SANGER: Inhibition of human HAL-01 cell growth in a cell viability assay.
# TE-12 = format: functional, cell-based, Homo sapiens; settings: Homo sapiens, TE-12;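 note: growth inhibition of TE-12 cells, read out by a cell viability assay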
# Description: SANGER: Inhibition of human TE-12 cell growth in a cell viability assay.
# NCI-H69 = format: functional, cell-based, Homo sapiens; settings: Homo sapiens, NCI-H69;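 note: growth inhibition of the cell line, read out with a cell viability assay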
# Description: SANGER: Inhibition of human NCI-H69 cell growth in a cell viability assay.
# CAS-1 = format: functional, cell-based, Homo sapiens; settings: Homo sapiens, CAS-1;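 note: growth inhibition of CAS-1 cells, measured with a cell viability assay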
# CTV-1 = format: functional, cell-based, Homo sapiens; settings: Homo sapiens, CTV-1;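 note: growth inhibition of the cell line, read out with a cell viability assay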
# Description: SANGER: Inhibition of human CTV-1 cell growth in a cell viability assay.
# EKVX = format: functional, cell-based, Homo sapiens; settings: Homo sapiens, EKVX;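 note: growth inhibition of human EKVX cells, read out with a cell viability assay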
# Description: SANGER: Inhibition of human EKVX cell growth in a cell viability assay.
# TE-8 = format: functional, cell-based, Homo sapiens; settings: Homo sapiens, TE-8;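 note: growth inhibition of TE-8 cells, measured with a cell viability readout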
# Description: SANGER: Inhibition of human TE-8 cell growth in a cell viability assay.
# SK-NEP-1 = format: functional, cell-based, Homo sapiens; settings: Homo sapiens, SK-NEP-1;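 note: growth inhibition of human SK-NEP-1 cells, read out by a cell viability assay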
# Description: SANGER: Inhibition of human SK-NEP-1 cell growth in a cell viability assay.
# COLO-829 = format: functional, cell-based, Homo sapiens; settings: Homo sapiens, COLO-829
# Description: SANGER: Inhibition of human COLO-829 cell growth in a cell viability assay.
# HCC1187 = format: functional, cell-based, Homo sapiens; settings: Homo sapiens, HCC1187;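 note: growth inhibition of HCC1187 cells, read out with a cell viability assay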
# HEL = format: functional, cell-based, Homo sapiens; settings: Homo sapiens, HEL;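 note: growth inhibition of HEL cells, read out with a cell viability assay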
# Description: SANGER: Inhibition of human HEL cell growth in a cell viability assay.
# A101D = format: functional, cell-based, Homo sapiens; settings: Homo sapiens, A101D;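 note: growth inhibition of the cell line, measured with a viability assay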
# Description: SANGER: Inhibition of human A101D cell growth in a cell viability assay.
# SCH = format: functional, cell-based, Homo sapiens; settings: Homo sapiens, SCH;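 note: growth inhibition of human SCH cells, read out in a cell viability assay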
# Description: SANGER: Inhibition of human SCH cell growth in a cell viability assay.
smiles,measurement,setting,value
C[C@@H](Oc1cc(-c2cnn(C3CCNCC3)c2)cnc1N)c1c(Cl)ccc(F)c1Cl [CRIZOTINIB],IC50,D283 Med,> 2000 nM
same,IC50,RH-1,> 2000 nM
same,IC50,MSTO-211H,> 2000 nM
same,IC50,A4-Fuk,> 2000 nM
same,IC50,NCI-H1355,> 2000 nM
same,IC50,P30-OHK,> 2000 nM
same,IC50,BV-173,1060 nM
same,IC50,ETK-1,> 2000 nM
same,IC50,ES7,> 2000 nM
same,IC50,NOMO-1,> 2000 nM
same,IC50,COLO-800,> 2000 nM
same,IC50,SW872,> 2000 nM
same,IC50,SF-268,> 2000 nM
same,IC50,COLO-668,> 2000 nM
same,IC50,HCC2218,> 2000 nM
same,IC50,U-87 MG,> 2000 nM
same,IC50,EW-18; read-out: IC50,> 2000 nM
same,IC50,COLO-320-HSR,> 2000 nM
same,IC50,NEC8,> 2000 nM
same,IC50,KNS-42,> 2000 nM
same,IC50,SK-N-DZ; read-out: IC50,> 2000 nM
same,IC50,KINGS-1,750 nM
same,IC50,NCI-H1838,> 2000 nM
same,IC50,RPMI-8226,> 2000 nM
same,IC50,GCIY,> 2000 nM
same,IC50,MFM-223,> 2000 nM
same,IC50,QIMR-WIL,> 2000 nM
same,IC50,LU-139,> 2000 nM
same,IC50,CW-2,> 2000 nM
same,IC50,LNCaP-Clone-FGC,> 2000 nM
same,IC50,K562,1720 nM
same,IC50,NB10,> 2000 nM
same,IC50,ATN-1,> 2000 nM
same,IC50,EOL1,> 2000 nM
same,IC50,LB1047-RCC,> 2000 nM
same,IC50,HAL-01,> 2000 nM
same,IC50,TE-12,> 2000 nM
same,IC50,NCI-H69,> 2000 nM
same,IC50,CAS-1,> 2000 nM
same,IC50,CTV-1,596 nM
same,IC50,EKVX,> 2000 nM
same,IC50,TE-8,> 2000 nM
same,IC50,SK-NEP-1,> 2000 nM
same,IC50,COLO-829,> 2000 nM
same,IC50,HCC1187,> 2000 nM
same,IC50,HEL,> 2000 nM
same,IC50,A101D,> 2000 nM
Cc1ccc(NC(=O)c2ccc(CN3CCN(C)CC3)cc2)cc1Nc1nccc(-c2cccnc2)n1 [IMATINIB],IC50,D283 Med,> 2000 nM
same,IC50,RH-1,> 2000 nM
same,IC50,MSTO-211H,> 2000 nM
same,IC50,A4-Fuk,> 2000 nM
same,IC50,NCI-H1355,> 2000 nM
same,IC50,P30-OHK,> 2000 nM
same,IC50,BV-173,187 nM
same,IC50,ETK-1,> 2000 nM
same,IC50,ES7,> 2000 nM
same,IC50,NOMO-1,> 2000 nM
same,IC50,COLO-800,> 2000 nM
same,IC50,SW872,> 2000 nM
same,IC50,SF-268,> 2000 nM
same,IC50,COLO-668,> 2000 nM
same,IC50,HCC2218,> 2000 nM
same,IC50,U-87 MG,> 2000 nM
same,IC50,EW-18,> 2000 nM
same,IC50,COLO-320-HSR,> 2000 nM
same,IC50,NEC8,> 2000 nM
same,IC50,KNS-42,> 2000 nM
same,IC50,SK-N-DZ,> 2000 nM
same,IC50,KINGS-1,> 2000 nM
same,IC50,NCI-H1838,> 2000 nM
same,IC50,RPMI-8226,> 2000 nM
same,IC50,GCIY,> 2000 nM
same,IC50,MFM-223,> 2000 nM
same,IC50,QIMR-WIL,> 2000 nM
same,IC50,LU-139,> 2000 nM
same,IC50,CW-2,> 2000 nM
same,IC50,K562,224 nM
same,IC50,NB10,> 2000 nM
same,IC50,ATN-1,> 2000 nM
same,IC50,EOL1,> 2000 nM
same,IC50,LB1047-RCC,> 2000 nM
same,IC50,HAL-01,> 2000 nM
same,IC50,TE-12,> 2000 nM
same,IC50,NCI-H69,> 2000 nM
same,IC50,CAS-1,> 2000 nM
same,IC50,CTV-1,> 2000 nM
same,IC50,EKVX,> 2000 nM
same,IC50,TE-8,> 2000 nM
same,IC50,SK-NEP-1,> 2000 nM
same,IC50,COLO-829,> 2000 nM
same,IC50,HCC1187,> 2000 nM
same,IC50,HEL,> 2000 nM
same,IC50,A101D,> 2000 nM
NC(=O)c1ccc(N(C(N)=O)c2c(F)cccc2F)nc1-c1ccc(F)cc1F [VX-702],IC50,D283 Med,> 2000 nM
same,IC50,RH-1,> 2000 nM
same,IC50,MSTO-211H,> 2000 nM
same,IC50,A4-Fuk,> 2000 nM
same,IC50,NCI-H1355,> 2000 nM
same,IC50,P30-OHK,> 2000 nM
same,IC50,BV-173,114 nM
same,IC50,ETK-1,> 2000 nM
same,IC50,ES7,> 2000 nM
same,IC50,NOMO-1,> 2000 nM
same,IC50,COLO-800,> 2000 nM
same,IC50,SW872,> 2000 nM
same,IC50,SF-268,> 2000 nM
same,IC50,COLO-668,> 2000 nM
same,IC50,SCH,> 2000 nM
same,IC50,HCC2218,497 nM
same,IC50,U-87 MG,> 2000 nM
same,IC50,EW-18; read-out: IC50,747 nM
same,IC50,COLO-320-HSR,> 2000 nM
same,IC50,NEC8,> 2000 nM
same,IC50,KNS-42,> 2000 nM
same,IC50,SK-N-DZ; read-out: IC50,> 2000 nM
same,IC50,KINGS-1,> 2000 nM
same,IC50,NCI-H1838,> 2000 nM
same,IC50,RPMI-8226,> 2000 nM
same,IC50,GCIY,> 2000 nM
same,IC50,MFM-223,> 2000 nM
same,IC50,QIMR-WIL,> 2000 nM
same,IC50,LU-139,194 nM
same,IC50,CW-2,> 2000 nM
same,IC50,LNCaP-Clone-FGC,> 2000 nM
same,IC50,K562,> 2000 nM
same,IC50,NB10,> 2000 nM
same,IC50,ATN-1,> 2000 nM
same,IC50,LB1047-RCC,> 2000 nM
same,IC50,HAL-01,> 2000 nM
same,IC50,TE-12,> 2000 nM
same,IC50,NCI-H69,99.4 nM
same,IC50,CAS-1,> 2000 nM
same,IC50,CTV-1,184 nM
same,IC50,EKVX,> 2000 nM
same,IC50,TE-8,> 2000 nM
same,IC50,SK-NEP-1,> 2000 nM
same,IC50,COLO-829,> 2000 nM
same,IC50,HCC1187,> 2000 nM
same,IC50,HEL,> 2000 nM
same,IC50,A101D,> 2000 nM
